Molecules are shown by their SMILES. pIC50: −log10 of the molar value.

This note sets out measurements from patent publication US8569298B2, “Pyridine compounds” (Astrazeneca AB, priority 2008, dated 2013).

The target of this experiment is T1, FAK enzyme (6 His tagged kinase domain, GenBank NP—722560) (Homo sapiens, UniProt Q05397).
T1 construct: 6 His; made in house; host or cells: insect cell culture infected with baculovirus
T1 sequence (Q05397 422-680 limits assumed): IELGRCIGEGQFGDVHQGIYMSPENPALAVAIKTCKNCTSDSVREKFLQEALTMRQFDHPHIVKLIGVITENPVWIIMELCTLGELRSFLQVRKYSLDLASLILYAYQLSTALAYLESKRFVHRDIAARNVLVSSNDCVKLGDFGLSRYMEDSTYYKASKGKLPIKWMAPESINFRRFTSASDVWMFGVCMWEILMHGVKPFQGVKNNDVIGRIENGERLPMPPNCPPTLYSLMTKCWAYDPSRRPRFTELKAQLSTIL
The experiment is described as follows: In vitro enzyme assay (a): sandwich ELISA of FAK tyrosine kinase activity on polyGAT peptide, TMB colorimetric endpoint. The conditions noted are these: in vitro Enzyme Assay test (a); ATP at Km; geometric mean of n > 1 measurements, values marked * tested once. Type of experiment: biochemical. Summed up: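 Recombinant His-tagged FAK kinase domain (baculovirus/insect cells) phosphorylated plate-coated polyGAT with ATP at Km, MgCl2/MnCl2, HEPES pH 7.4, 25 min at room temperature before EDTA stop. Phosphotyrosine detected by HRP-4G10 antibody and TMB absorbance at 450 nm; IC50 from 12-point curve anchored to DMSO and staurosporine controls.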
On the technique in general: In an ELISA, binding on a coated surface is turned into a signal by an enzyme label.
`CNC(=O)c1ccccc1Nc1cc(Nc2cn(C)nc2OC)ncc1C(F)(F)F` [Example 12.12, 2-[[2-[(3-methoxy-1-methyl-pyrazol-4-yl)amino]-5-(trifluoromethyl)-4-pyridyl]amino]-N-methyl-benzamide] gave a pIC50 of 8.52.

`Cc1nn(C(C)C)cc1Nc1cc(Nc2cccc3c2C(=O)N(C)CC3)c(Cl)cn1` [Example 13.01, 8-[[5-chloro-2-[(1-isopropyl-3-methyl-pyrazol-4-yl)amino]-4-pyridyl]amino]-2-methyl-3,4-dihydroisoquinolin-1-one] gave a pIC50 of 7.89.

Regarding `CNC(=O)c1ccccc1Nc1cc(Nc2cn(C(C)C)nc2C)ncc1C(F)(F)F` [Example 13.02, 2-[[2-[(1-isopropyl-3-methyl-pyrazol-4-yl)amino]-5-(trifluoromethyl)-4-pyridyl]amino]-N-methyl-benzamide], the negative-log IC50 (pIC50) is 7.68.

The compound `CNC(=O)c1ccccc1Nc1cc(Nc2cn(C(F)F)nc2C)ncc1C(F)(F)F` [Example 13.03, 2-[[2-[[1-(difluoromethyl)-3-methyl-pyrazol-4-yl]amino]-5-(trifluoromethyl)-4-pyridyl]amino]-N-methyl-benzamide] showed a pIC50 of 7.30.

`Cc1nn(C(F)F)cc1Nc1cc(Nc2cccc3c2C(=O)N(C)CC3)c(Cl)cn1` [Example 13.04, 8-[[5-chloro-2-[[1-(difluoromethyl)-3-methyl-pyrazol-4-yl]amino]-4-pyridyl]amino]-2-methyl-3,4-dihydroisoquinolin-1-one]: the pIC50 was 7.64.

For `Cc1nn(CCO)cc1Nc1cc(Nc2cccc3c2C(=O)N(C)CC3)c(Cl)cn1` [Example 13.05, 8-[[5-chloro-2-[[1-(2-hydroxyethyl)-3-methyl-pyrazol-4-yl]amino]-4-pyridyl]amino]-2-methyl-3,4-dihydroisoquinolin-1-one], the pIC50 is 8.40.

`CNC(=O)c1ccccc1Nc1cc(Nc2cn(CCO)nc2C)ncc1C(F)(F)F` [Example 13.06, 2-[[2-[[1-(2-hydroxyethyl)-3-methyl-pyrazol-4-yl]amino]-5-(trifluoromethyl)-4-pyridyl]amino]-N-methyl-benzamide] showed a pIC50 of 8.22.

`CONC(=O)c1c(Nc2cc(Nc3cn(C)nc3C)ncc2C(F)(F)F)cccc1OC` [Example 14.01, 2-[[2-[(1,3-dimethylpyrazol-4-yl)amino]-5-(trifluoromethyl)-4-pyridyl]amino]-N,6-dimethoxy-benzamide] showed a pIC50 of 8.40.

`CONC(=O)c1ccccc1Nc1cc(Nc2cc(C)nn2C)ncc1C(F)(F)F` [Example 14.02, 2-[[2-[(2,5-dimethylpyrazol-3-yl)amino]-5-(trifluoromethyl)-4-pyridyl]amino]-N-methoxy-benzamide]: the pIC50 was 8.70.

Compound `CONC(=O)c1c(Nc2cc(Nc3cc(C)nn3C)ncc2C(F)(F)F)cccc1OC` [Example 14.03, 2-[[2-[(2,5-dimethylpyrazol-3-yl)amino]-5-(trifluoromethyl)-4-pyridyl]amino]-N,6-dimethoxy-benzamide] had a negative logarithm of the IC50 (pIC50) of 8.22.

For `CONC(=O)c1ccc(F)cc1Nc1cc(Nc2cn(C)nc2C)ncc1C(F)(F)F` [Example 15.01, 2-[[2-[(1,3-dimethylpyrazol-4-yl)amino]-5-(trifluoromethyl)-4-pyridyl]amino]-4-fluoro-N-methoxy-benzamide], the pIC50 is 8.40.

Compound `CONC(=O)c1ccc(F)cc1Nc1cc(Nc2cc(C)nn2C)ncc1C(F)(F)F` [Example 15.02, 2-[[2-[(2,5-dimethylpyrazol-3-yl)amino]-5-(trifluoromethyl)-4-pyridyl]amino]-4-fluoro-N-methoxy-benzamide] had a negative logarithm of the IC50 (pIC50) of 8.52.

Consider `CNC(=O)c1ccc(F)cc1Nc1cc(Nc2cc(C)nn2C)ncc1C(F)(F)F` [Example 15.03, 2-[[2-[(2,5-dimethylpyrazol-3-yl)amino]-5-(trifluoromethyl)-4-pyridyl]amino]-4-fluoro-N-methyl-benzamide], for which the negative logarithm of the IC50 (pIC50) was 8.22.

For the compound `CNC(=O)c1c(Nc2cc(Nc3c(C)nn(C)c3C)ncc2C(F)(F)F)cccc1OC` [Example 15.04, 2-Methoxy-N-methyl-6-[[5-(trifluoromethyl)-2-[(1,3,5-trimethylpyrazol-4-yl)amino]-4-pyridyl]amino]benzamide], the pIC50 is 7.62.

Turning to `CONC(=O)c1c(Nc2cc(Nc3c(C)nn(C)c3C)ncc2C(F)(F)F)cccc1OC` [Example 15.05, N,2-dimethoxy-6-[[5-(trifluoromethyl)-2-[(1,3,5-trimethylpyrazol-4-yl)amino]-4-pyridyl]amino]benzamide], the negative logarithm of the IC50 (pIC50) is 8.00.

Turning to `CONC(=O)c1ccccc1Nc1cc(Nc2c(C)nn(C)c2C)ncc1C(F)(F)F` [Example 15.06, N-methoxy-2-[[5-(trifluoromethyl)-2-[(1,3,5-trimethylpyrazol-4-yl)amino]-4-pyridyl]amino]benzamide], the pIC50 is 8.30.

On to `CCONC(=O)c1ccccc1Nc1cc(Nc2cc(C)nn2C)ncc1C(F)(F)F` [Example 15.07, 2-[[2-[(2,5-dimethylpyrazol-3-yl)amino]-5-(trifluoromethyl)-4-pyridyl]amino]-N-ethoxy-benzamide], for which the negative logarithm of the IC50 (pIC50) is 6.95.

As for `Cc1cc(Nc2cc(Nc3ccccc3C(=O)NOCCO)c(C(F)(F)F)cn2)n(C)n1` [Example 15.08, 2-[[2-[(2,5-dimethylpyrazol-3-yl)amino]-5-(trifluoromethyl)-4-pyridyl]amino]-N-(2-hydroxyethoxy)benzamide], the negative logarithm of the IC50 (pIC50) was 6.21.

Regarding `CONC(=O)c1cc(F)ccc1Nc1cc(Nc2cc(C)nn2C)ncc1C(F)(F)F` [Example 16.01, 2-[[2-[(2,5-dimethylpyrazol-3-yl)amino]-5-(trifluoromethyl)-4-pyridyl]amino]-5-fluoro-N-methoxy-benzamide], the negative-log IC50 (pIC50) was 7.92.

On to `CONC(=O)c1cc(F)ccc1Nc1cc(Nc2cn(C)nc2C)ncc1C(F)(F)F` [Example 16.02, 2-[[2-[(1,3-dimethylpyrazol-4-yl)amino]-5-(trifluoromethyl)-4-pyridyl]amino]-5-fluoro-N-methoxy-benzamide], for which the negative-log IC50 (pIC50) is 8.22.

What is called pIC50 is −log10 of the IC50, conventionally taken in molar units. Low values mean a high IC50, high ones a low IC50.
